Tested on: circulating neutrophils
Settings: day 5; two i.p. injections, total 250 mg/kg (150 mg/kg day 1, 100 mg/kg day 4)
Source text: We first examined neutrophil recruitment and its bacteria-killing capability under neutropenic conditions. We induced neutropenia using a widely used chemotherapeutic drug, cyclophosphamide (Cy), which is used primarily to treat cancer.
We also examined neutrophil recruitment and its bacteria-killing capability under neutropenic conditions. We induced neutropenia using a widely used chemotherapeutic drug, cyclophosphamide (Cy).

SMILES: O=P1(N(CCCl)CCCl)NCCCO1 (stereo not shown) [Cy, cyclophosphamide]
- fewer circulating neutrophils than the untreated group: approximately 90%

From patent US20110002877A1, “PTEN Inhibitors Treat Neutropenia-Associated Pneumonia” (priority 2009, published 2011)
